From patent US9308269B2, “Stable liquid formulations of volatile gas anesthetics” (UNIVERSITY OF MIAMI, priority 2011, dated 2016)

What was measured:
[1] = test system: p38 MAPK; assay: p38 MAPK activity after H2O2 oxidative stress in β-TC3 cells; type: cell-based, murine
Description: Murine insulinoma beta-TC3 (β-TC3) cells were used as a surrogate source of β-cells in vitro. The β-TC3 cells were incubated for 48 hours, and then subdivided into four (4) groups, with three (3) series of cell cultures per group repeated in triplicate. Group 1 were sham cultured β-TC3 cells; group 2 cells were subdivided into those pre-treated with 0.5 mM isoflurane for 15 minutes or 60 minutes without H2O2, followed by an isoflurane washout; group 3 cells were exposed only to 0.3 mM H2O2 for 3 hours; group 4 cells were pre-treated with isoflurane for 15 minutes or 60 minutes, as in group 2, followed by an isoflurane washout and exposure to 0.3 mM H2O2 for 3 hours. FIG. 26 is illustrative of the experimental design for the present study.

[2] = Isoflurane concentration and loss over time measured by ATR-FTIR (1300-1260 cm^-1); type: physicochemical; conditions: exposed to air
Description: In accordance with the present example, ATR-FTIR spectra were recorded on a PerkinElmer Spectrum 100 FTIR spectrometer equipped with a KBr beam splitter, 1 bounce Universal Di/ZnSe ATR sampling accessory, and electronically, temperature-stabilized fast recovery deuterated triglycine sulfate detector. The spectra generated are an average of four scans at a resolution of 4 cm^−1. Emulsion samples of 50 μL each were obtained from each of the emulsions described below, and the emulsion samples were measured by covering the measurement surface. Standard curves were generated by manufacturing emulsions of known volume percentage isoflurane by gravimetric determination, performing ATR-FTIR measurements and then, taking area under the curve (“AUC”) determinations of peaks in the region specific to fluorine bond vibration (1300-1000 cm^−1). […]
From these peaks, measurements of the area under the curve (“AUC”) for each of the two spectral regions, once again, 1300-1260 cm^−1 and 1225-1011 cm^−1, were used to generate standard curves of isoflurane concentration. […] The two curves were generated to evaluate the possibility of isoflurane loss during the emulsification process, as a comparison between the two standard curves would allow for assessment of error in emulsion manufacture and allow for more accurate quantification. […]

[3] = Isoflurane concentration in stored emulsion measured by weight; type: physicochemical; conditions: open container, about 21° C.
Description: A standard curve for determining isoflurane concentration was generated based upon 1 mL mixtures of a base solution, i.e., 2% w/v surfactant plus PBS or HBSS; 10% v/v FC-43; and, various known v/v % isoflurane concentrations. A 1 mL aliquot of each of these mixtures was weighed and compared to its expected weight based on the density of each component, and a predicted density of each mixture. The predicted or expected density of each mixture was determined by the following equation: ρexpected=ν%A*ρA+ν%BρB+ν%CρC
where ρ is the density, and A, B, C are the surfactant solution, PCF or FC-43, and isoflurane, respectively. FIG. 8 is a standard curve generated in accordance with the procedure of this example for the determination of isoflurane concentration by weight. The measured values were compared to the theoretical values, or ρexpected, and a high degree of correlation, R^2>0.99, was observed, as illustrated in FIG. 9.
From the standard curve generated of the mixtures, the content of isoflurane in any emulsion can be determined by weighing a known volume, for example, a 1 mL aliquot. and tabulating the known portions of the weight, e.g., the volume percentages of the base solution and PCF, i.e., FC-43, and calculating the unknown volume by dividing the remaining weight by the density of pure isoflurane. […]

[4] = test system: Murine insulinoma beta-TC3 (β-TC3) cells; assay: Anesthetic preconditioning against H2O2 oxidative stress, cell viability by FACS; type: cell-based
Description: Murine insulinoma beta-TC3 (β-TC3) cells were used as a surrogate source of β-cells in vitro. […] FIG. 26 is illustrative of the experimental design for the present study. Cells were then harvested and assayed for viability via FACS analysis (Live/Dead far red, and TMRE, mitochondrial fluorescent dye to detect apoptosis). Data was analyzed using ANOVA with post hoc Tukey for multiple comparisons.

time to complete evaporation on ATR-FTIR crystal [2] [s] | time to essentially complete evaporation [3] | fraction of sample evaporated ([3]; after about 0.2 hours) [%] | SMILES | p38 MAPK activity ([1]; isoflurane pretreatment, compared to cells exposed to H2O2 alone) | β-TC3 cell survival compared to controls ([4]; 0.5 mM isoflurane pretreatment 15 minutes, washout, then 0.3 mM H2O2 for 3 hours) [%] | β-TC3 cell survival compared to controls ([4]; 0.5 mM isoflurane pretreatment 60 minutes, washout, then 0.3 mM H2O2 for 3 hours) [%] | p38 MAPK activity ([1]; treatment by H2O2 alone) | β-TC3 cell survival compared to controls ([4]; 0.3 mM H2O2 for 3 hours alone) [%]
≤ 10 | over 0.5 hours | ~50 | FC(F)OC(Cl)C(F)(F)F (centres unmarked) [isoflurane] | significantly decreased p38 MAPK activity | 98±2 | 105±0 | – | –
– | – | – | OO [H2O2, hydrogen peroxide] | – | – | – | increased protein kinase activity | 44±13
